Experimental data: patent US20170305893A1 (Thomas Helledays Stiftelse for Medicinsk Forskning, priority 2014, published 2017)
Like-named read-outs stand apart in the source and are kept apart here.

Experiments:
[1] = tested on: human cancer cell lines; settings: three types of human cancer cell lines; cited from earlier work
[2] = molecular target: T1, DCTPP1 (Homo sapiens, UniProt Q9H773); experiment: DCTPP1 inhibition assay (malachite green); format: biochemical; settings: 35 nM DCTPP1, 35 μM dCTP, 20 minutes at 22° C.
T1 sequence (Q9H773 1-170): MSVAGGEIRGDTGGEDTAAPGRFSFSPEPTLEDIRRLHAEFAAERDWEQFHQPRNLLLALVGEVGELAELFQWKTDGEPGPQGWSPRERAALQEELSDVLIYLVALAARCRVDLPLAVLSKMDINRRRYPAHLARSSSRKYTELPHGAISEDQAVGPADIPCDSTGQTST
Experimental: DCTPP1 catalyzes the hydrolysis of dCTP to dCMP and PPi. By coupling the reaction to pyrophosphatase added in excess PPi is converted to Pi that can be detected by using the malachite green assay reagent. […] DCTPP1 diluted in assay buffer (100 mM Tris-acetate, 100 mM KCl, 10 mM magnesium acetate, 1 mM DTT and 0.005% Tween 20) fortified with E. coli pyrophosphatase (0.2 U/mL) is added to a final concentration of 35 nM. dCTP diluted in assay buffer is added to a final concentration of 35 μM. The reaction mixture is incubated with shaking for 20 minutes at 22° C. To 100 μl reaction mixture is added […] Malachite green assay reagent (0.095% Malachite green in 17% H2SO4, 1.5% Ammonium molybdate, 0.17% Tween 20) added followed by incubation with shaking for 15 minutes at 22° C. The absorbance of the assay plate is read at 630 nm using a SpectraMax plate reader (Molecular Devices).

Row | Structure (SMILES) | IC50 ([2]; read-out: IC50 (nM), class) | further results
1 | COc1cc(C(=O)n2ccc3c([N+](=O)[O-])c(OC)ccc32)cc(OC)c1OC [(5-methoxy-4-nitroindol-1-yl)(3,4,5-trimethoxy-phenyl)methanone] |  | antiproliferative activity [1]: does not show any activity
2 | Cc1nc2c([N+](=O)[O-])c(Cl)c(Cl)cc2n1Cc1ccc(Cl)nc1 [Compound 2.2.43, 5,6-dichloro-1-((6-chloropyridin-3-yl)methyl)-2-methyl-4-nitro-1H-benzo[d]imidazole] | 100 to 500 nM | 
3 | Cc1nc2c([N+](=O)[O-])c(Cl)c(Cl)cc2n1Cc1ccc(B(O)O)cc1 [Compound 2.2.44, (4-((5,6-dichloro-2-methyl-4-nitro-1H-benzo[d]imidazol-1-yl)methyl)phenyl)boronic acid] |  | IC50 ([2]; read-out: IC50): 47 nM
4 | O=[N+]([O-])c1c(Cl)c(Cl)cc2c1nc(C1CC1)n2Cc1ccc(B(O)O)cc1 [Compound 2.2.45, (4-((5,6-dichloro-2-cyclopropyl-4-nitro-1H-benzo[d]imidazol-1-yl)methyl)phenyl)boronic acid] | < 100 nM | IC50 ([2]; read-out: IC50): 27 nM
5 | Cc1nc2c([N+](=O)[O-])c(Cl)c(Cl)cc2n1Cc1ccccc1B(O)O [Compound 2.2.46, (2-((5,6-dichloro-2-methyl-4-nitro-1H-benzo[d]imidazol-1-yl)methyl)phenyl)boronic acid] | < 100 nM | 
6 | Cc1nc2c([N+](=O)[O-])c(Cl)c(Cl)cc2n1Cc1cccc(B(O)O)c1 [Compound 2.2.47, (3-((5,6-dichloro-2-methyl-4-nitro-1H-benzo[d]imidazol-1-yl)methyl)phenyl)boronic acid] | < 100 nM | 
7 | Cc1nc2c([N+](=O)[O-])c(Cl)c(Cl)cc2n1Cc1ccc(B2OC(C)(C)C(C)(C)O2)cc1 [Compound 2.2.49, 5,6-dichloro-2-methyl-4-nitro-1-(4-(4,4,5,5-tetramethyl-1,3,2-dioxaborolan-2-yl)benzyl)-1H-benzo[d]imidazole] |  | IC50 ([2]; read-out: IC50): 30 nM
8 | Cc1nc2c([N+](=O)[O-])c(Cl)c(Cl)cc2n1Cc1ccc(B2OC(=O)CN(C)CC(=O)O2)cc1 [Compound 2.2.50, 2-(4-((5,6-dichloro-2-methyl-4-nitro-1H-benzo[d]imidazol-1-yl)methyl)phenyl)-6-methyl-1,3,6,2-dioxazaborocane-4,8-dione] |  | IC50 ([2]; read-out: IC50): 44 nM
9 | Cc1nc2c([N+](=O)[O-])c(Cl)c(Cl)cc2n1CCc1ccc(B(O)O)cc1 [Compound 2.2.51, (4-(2-(5,6-dichloro-2-methyl-4-nitro-1H-benzo[d]imidazol-1-yl)ethyl)phenyl)boronic acid] | 100 to 500 nM | 
10 | COc1cc(Cn2c(C)nc3c([N+](=O)[O-])c(C)c(C)cc32)cc(OC)c1OC [Compound 2.2.52, 2,5,6-trimethyl-4-nitro-1-(3,4,5-trimethoxybenzyl)-1H-benzo[d]imidazole] | ≥ 1000 nM | 
11 | Cc1cc2c(nc(C)n2Cc2cc3c(cc2Cl)OCO3)c([N+](=O)[O-])c1C [Compound 2.2.53, 1-((6-chlorobenzo[d][1,3]dioxol-5-yl)methyl)-2,5,6-trimethyl-4-nitro-1H-benzo[d]imidazole] | ≥ 1000 nM | 
12 | COc1ccc(Cn2c(C)nc3c([N+](=O)[O-])c(C)c(C)cc32)cc1 [Compound 2.2.54, 1-(4-methoxybenzyl)-2,5,6-trimethyl-4-nitro-1H-benzo[d]imidazole] | < 100 nM | 
13 | Cc1cc2c(nc(C)n2Cc2ccc(Cl)cc2)c([N+](=O)[O-])c1C [Compound 2.2.55, 1-(4-chlorobenzyl)-2,5,6-trimethyl-4-nitro-1H-benzo[d]imidazole] | < 100 nM | 
14 | Cc1cc2c(nc(C)n2Cc2ccc(F)cc2)c([N+](=O)[O-])c1C [Compound 2.2.56, 1-(4-fluorobenzyl)-2,5,6-trimethyl-4-nitro-1H-benzo[d]imidazole] | 100 to 500 nM | 
15 | Cc1cc2c(nc(C)n2Cc2ccc(OC(F)(F)F)cc2)c([N+](=O)[O-])c1C [Compound 2.2.57, 2,5,6-trimethyl-4-nitro-1-(4-(trifluoromethoxy)benzyl)-1H-benzo[d]imidazole] | 100 to 500 nM | 
16 | COc1ccc(Cn2c(C(F)(F)F)nc3c([N+](=O)[O-])c(C)c(C)cc32)cc1 [Compound 2.2.58, 1-(4-methoxybenzyl)-5,6-dimethyl-4-nitro-2-(trifluoromethyl)-1H-benzo[d]imidazole] |  | IC50 ([2]; read-out: IC50): 14 nM
17 | Cc1cc2c(nc(C)n2C(C)c2ccccc2)c([N+](=O)[O-])c1C (stereo not shown) [Compound 2.2.59, 2,5,6-trimethyl-4-nitro-1-(1-phenylethyl)-1H-benzo[d]imidazole] | 100 to 500 nM | 
18 | Cc1cc2c(nc(C)n2Cc2ccc(B(O)O)cc2)c([N+](=O)[O-])c1C [Compound 2.2.60, (4-((2,5,6-trimethyl-4-nitro-1H-benzo[d]imidazol-1-yl)methyl)phenyl)boronic acid] |  | IC50 ([2]; read-out: IC50): 65 nM
19 | Cc1cc2c(nc(C(F)(F)F)n2Cc2ccc(B(O)O)cc2)c([N+](=O)[O-])c1C [Compound 2.2.61, (4-((5,6-dimethyl-4-nitro-2-(trifluoromethyl)-1H-benzo[d]imidazol-1-yl)methyl)phenyl)boronic acid] | < 100 nM | 
20 | CC1(C)CC(C)(C)c2c1cc1c(cnn1Cc1ccc(B(O)O)cc1)c2[N+](=O)[O-] [Compound 2.2.64] | ≥ 1000 nM | 
21 | COc1ccc(Cn2c(Cc3ccccc3)nc3cccc([N+](=O)[O-])c32)cc1 [Compound 2.3.1, 2-benzyl-1-(4-methoxybenzyl)-7-nitro-1H-benzo[d]imidazole] | ≥ 1000 nM | 
22 | COc1ccc(Cn2c(OC)nc3cccc([N+](=O)[O-])c32)cc1 [Compound 2.3.2, 2-methoxy-1-(4-methoxybenzyl)-7-nitro-1H-benzo[d]imidazole] | ≥ 1000 nM | 
23 | COc1ccc(Cn2c(-c3ccccc3)nc3cccc([N+](=O)[O-])c32)cc1 [Compound 2.3.3, 1-(4-methoxybenzyl)-7-nitro-2-phenyl-1H-benzo[d]imidazole] | ≥ 1000 nM | 
24 | Cc1nc2cc(F)c(F)c([N+](=O)[O-])c2n1Cc1ccc(B(O)O)cc1 [Compound 2.3.4, (4-((5,6-difluoro-2-methyl-7-nitro-1H-benzo[d]imidazol-1-yl)methyl)phenyl)boronic acid] | 500 to 1000 nM | 
